From paper doi:10.1101/2024.08.19.608619, “Discovery of potent SARS-CoV-2 nsp3 macrodomain inhibitors uncovers lack of translation to cellular antiviral response” (bioRxiv, 2024)
≈ marks a conversion by molar mass, not a printed value. Where “and” joins values, the source holds several entries; their conditions need not be identical. Equal entries are not always repeated. Where two headings read alike, the source gives them in different places.

Columns and labels:
HeLa-ACE2 cells = conditions: for perc_max_measured: highest measured response of the dose series; for perc_min_measured: lowest measured response of the dose series
[1] = system: SARS-CoV-2, isolate USA-WA1/2020; assay: microbe, parasite or virus in culture; format: cell-based; conditions: HeLa-ACE2 SARS-CoV-2 antiviral effect without P-gp inhibitor; for perc_max_measured: maximum measured response of dose series; for perc_min_measured: minimum measured response of dose series; for EC50: read-out: ec50; for EC90: read-out: ec90
SARS-CoV-2 = assay: Antiviral effect in iPSC-derived pneumocyte system; format: cell-based; conditions: iPSC pneumocytes SARS-CoV-2 antiviral effect; for perc_max_measured: maximum measured response of dose series; for perc_min_measured: minimum measured response of dose series
in vitro [2] = conditions: human, hela-ace2 cells, 50.0
LogD = conditions: pH 7.4
[3] = In vitro kinetic solubility; conditions: for solubility_mean: In vitro kinetic solubility, ph 7.4
[4] = Hepatic microsomal stability, HLM; format: in vitro ADME, human; conditions: In vitro human liver microsomal stability; for perc_remaining_no_cofactor: no cofactor
iPSC pneumocytes = iPSC pneumocytes cytotoxicity; format: cell-based; conditions: for perc_max_measured: highest measured response of the dose series; for perc_min_measured: lowest measured response of the dose series
Description: Supplement media-1.zip/Cytotoxicity.csv, table | column: cc10; cc50; perc_min_measured; perc_max_measured

[5] = Permeability Papp (AB) MDR1/MDCKII; conditions: for papp_a_to_b_mean: A to B; for perc_recovery_a_to_b_mean / perc_recovery_a_to_b_inhibitor_mean: recovery A to B; for papp_b_to_a_mean: B to A; for perc_recovery_b_to_a_mean / perc_recovery_b_to_a_inhibitor_mean: recovery B to A; for perc_recovery_a_to_b_inhibitor_mean / perc_recovery_b_to_a_inhibitor_mean: MDR1-MDCKII
[6] = Hepatic microsomal stability, MLM; format: in vitro ADME
in vitro [7] = assay: in vitro; design: Cytotoxicity in iPSC-derived pneumocytes, CC50; conditions: human, ipsc-derived pneumocytes, read-out: 50.0
Description: Finally, we consider the hypothesis that interferon response triggers ADP-ribosylation, thus profiling the compounds in enhanced and physiologically relevant interferon environments could reveal detectable antiviral effects. […] Furthermore, HeLa-ACE2 cells, and all cancerous cell lines, display defective innate immune response ([1]). As such, we also assess our compound in a primary-like iPSC-derived pneumocyte system (Figure 7C), showing likewise a lack of antiviral activity in this physiologically relevant innate immunity system.

SARS-CoV-2 nsp3-mac1 = SARS-CoV-2 nsp3-mac1 (Severe acute respiratory syndrome coronavirus 2, UniProt P0DTD1); assay: biochemical
MDR1 = assay: Permeability Papp (AB) MDR1/MDCKII; conditions: dog, MDCK-MDR1, papp_a_to_b_mean, In vitro MDR1-MDCKII permeability, A to B, mean
[8] = protocol HeLa-ACE2 cytotoxicity
[9] = protocol iPSC pneumocytes cytotoxicity
[10] = In vitro MDR1-MDCKII permeability, mean
[11] = In vitro mouse liver microsomal stability
[12] = In vitro mouse liver microsomal stability, no cofactor
[13] = In vitro MDR1-MDCKII permeability, no inhibitor

SMILES	perc_max_measured (HeLa-ACE2 cells; [8])	perc_min_measured (HeLa-ACE2 cells; [8])	perc_max_measured [1]	perc_min_measured [1] [%]	EC50 [1] [µM]	EC90 [1] [µM]	EC50 (SARS-CoV-2) [µM]	EC90 (SARS-CoV-2) [µM]	perc_max_measured (SARS-CoV-2) [%]	perc_min_measured (SARS-CoV-2) [%]	logd (LogD; In vitro LogD)	solubility_mean [3] [µM]	clint [4] [µL/min/mg]	perc_remaining [4] [%]	t_half [4] [min]	perc_remaining_no_cofactor [4] [%]	clint [6, 11] [µL/min/mg]	perc_remaining [6, 11] [%]	t_half [6, 11] [min]	perc_remaining_no_cofactor [6, 12] [%]	further results
CNC(=O)c1cc2c(N[C@@H](c3ccc4c(c3)OCCO4)C(C)C)ncnc2[nH]1 [ASAP-0008348]	108.404%	99.225%	114.293%	64.264	> 50	> 50	> 50	> 50	153.61	91.144	2.76	380 (≈ 145 µg/mL)	79.0	23.0	21.1	92.0	55.0	43.0	30.5		CC50 (HeLa-ACE2 cells; [8]): > 50 µM; cc10 (HeLa-ACE2 cells; [8]): > 50.0 µM; CC50 at 24 h (in vitro [2]): > 50 µM; CC50 (iPSC pneumocytes; [9]): > 50 µM; cc10 (iPSC pneumocytes; [9]): > 50.0 µM; perc_max_measured (iPSC pneumocytes; [9]): 98.804%; perc_min_measured (iPSC pneumocytes; [9]): 52.012%; papp_a_to_b_mean [5, 10]: 1.96 ×10⁻⁶ cm/s; perc_recovery_a_to_b_mean [5, 10]: 86.8%; perc_remaining_no_cofactor ([6]; In vitro mouse liver microsomal stability; no cofactor): 112.0%; CC50 (in vitro [7]; ASAP-0008327-001=ASAP-0008348-001): > 50 µM
CNC(=O)Cn1cc(-c2cc3c(NC(c4ccc5c(c4)OCCO5)C(C)C)ncnc3[nH]2)cn1 (stereo not drawn) [ASAP-0008565]														14.0	14.0	92.0		46.0	35.7	90.0	IC50 (SARS-CoV-2 nsp3-mac1; IC50, nsp3-mac1 activity, Figures 1-3 and text): 0.25 µM; increase in potency relative to the starting point (SARS-CoV-2 nsp3-mac1; relative to ASAP-000450): 10 x; logd (LogD): 2.9; solubility ([3]; pH 7.4): 289 µM (≈ 133 µg/mL); microsomal CLint ([4]; liver microsomes): 119 µL/min/mg; perc_recovery_a_to_b_mean [5, 10]: 94.1%; Papp A→B (MDR1): 1.94 ×10⁻⁶ cm/s; microsomal CLint ([6]; liver microsomes; In vitro mouse liver microsomal stability): 47 µL/min/mg
CC(C)[C@@H](Nc1ncnc2[nH]c(C(=O)N[C@H]3CCN(C)C3)cc12)c1ccc2c(c1)S(=O)(=O)CCC2 (single isomer, unassigned) [ASAP-0012336]	90.418%	77.593%	102.123%	84.181	> 20	> 20	> 50	> 50	114.501	59.767	1.5	392 (≈ 195 µg/mL)	26.0	66.0	64.0	107.0	4.0	92.0	433.8	92.0	CC50 (HeLa-ACE2 cells; [8]): > 20 µM; cc10 (HeLa-ACE2 cells; [8]): > 20.0 µM; CC50 (iPSC pneumocytes): > 50 µM; cc10 (iPSC pneumocytes): > 50.0 µM; perc_max_measured (iPSC pneumocytes): 106.87%; perc_min_measured (iPSC pneumocytes): 91.721%; papp_b_to_a_mean [5, 13]: 0.038 ×10⁻⁶ cm/s; efflux_ratio [5, 13]: 0.5; perc_recovery_a_to_b_mean [5, 13]: 53.5% and 74.5%; perc_recovery_b_to_a_mean [5, 13]: 66.7%; perc_recovery_a_to_b_inhibitor_mean ([5]; with inhibitor Verapamil): 95.9%; perc_recovery_b_to_a_inhibitor_mean ([5]; with inhibitor Verapamil): 77.9%; CC50 (in vitro [7]; ASAP-0008327-001=ASAP-0012336-001): > 50 µM
CC(C)[C@@H](Nc1ncnc2[nH]c(C(N)=O)cc12)c1ccc2c(c1)OCCO2 [ASAP-0008438]	102.95% and 76.872%	63.007% and 58.0%	108.483% and 95.443%		> 20	> 20	> 50	> 50	162.718	51.066											cc10 (HeLa-ACE2 cells): < 0.082 µM; cc50 (HeLa-ACE2 cells): < 0.082 µM; CC50 (iPSC pneumocytes; [9]): > 50 µM; cc10 (iPSC pneumocytes; [9]): > 50.0 µM; perc_max_measured (iPSC pneumocytes; [9]): 107.376%; perc_min_measured (iPSC pneumocytes; [9]): 74.883%; CC50 (in vitro [7]; ASAP-0008327-001=ASAP-0008438-001): > 50 µM
Cc1ncc(-c2cc3c(N[C@@H](c4ccc5c(c4)OCCO5)C(C)C)ncnc3[nH]2)cn1 [ASAP-0008490]	110.055% and 97.495%	79.698% and 83.505%	95.537% and 100.014%		4.51	> 20	15.7	36	160.084	9.251											CC50 (HeLa-ACE2 cells): > 20 µM; cc10 (HeLa-ACE2 cells): > 20.0 µM; CC50 at 24 h (in vitro [2]): > 20 µM; CC50 (iPSC pneumocytes; [9]): > 50 µM; cc10 (iPSC pneumocytes; [9]): > 50.0 µM; perc_max_measured (iPSC pneumocytes; [9]): 94.665%; perc_min_measured (iPSC pneumocytes; [9]): 63.131%; CC50 (in vitro [7]; ASAP-0008327-001=ASAP-0008490-001): > 50 µM
CNC(=O)Cn1cc(-c2cc3c(N[C@H](c4ccc5c(c4)S(=O)(=O)CCC5)C(C)C)ncnc3[nH]2)cn1 (single isomer, unassigned) [ASAP-0011171]	102.722%	92.936%	108.143%	92.194	> 20	> 20	> 50	> 50	106.027	60.326	2.4	323 (≈ 164 µg/mL)	92.0	23.0	18.1	101.0	111.0	16.0	15.0	96.0	CC50 (HeLa-ACE2 cells; [8]): > 20 µM; cc10 (HeLa-ACE2 cells; [8]): > 20.0 µM; CC50 (iPSC pneumocytes): > 50 µM; cc10 (iPSC pneumocytes): > 50.0 µM; perc_max_measured (iPSC pneumocytes): 98.842%; perc_min_measured (iPSC pneumocytes): 89.646%; papp_a_to_b_mean [5, 10]: 0.396 ×10⁻⁶ cm/s; perc_recovery_a_to_b_mean [5, 10]: 65.1%; CC50 (in vitro [7]; ASAP-0008327-001=ASAP-0011171-001): > 50 µM
CC(C)[C@@H](Nc1ncnc2[nH]c(-c3cnn(CC(N)=O)c3)cc12)c1ccc2c(n1)OCCO2 (single isomer, unassigned) [ASAP-0012315]	91.832%	81.293%	122.738%	101.22	> 20	> 20	> 50	> 50	94.962	56.467	2.4	395 (≈ 177 µg/mL)	18.0	77.0	91.8	95.0	9.0	90.0	182.3	102.0	CC50 (iPSC pneumocytes): > 50 µM; cc10 (iPSC pneumocytes): > 50.0 µM; perc_max_measured (iPSC pneumocytes): 105.354%; perc_min_measured (iPSC pneumocytes): 100.058%; papp_b_to_a_mean [5, 13]: 2.3 ×10⁻⁶ cm/s and 3.5 ×10⁻⁶ cm/s; perc_recovery_a_to_b_mean [5, 13]: 59.0% and 72.1% and 66.1%; perc_recovery_b_to_a_mean [5, 13]: 78.3% and 92.2%; perc_recovery_a_to_b_inhibitor_mean ([5]; with inhibitor Cyclosporin A): 64.5%; perc_recovery_a_to_b_inhibitor_mean ([5]; with inhibitor Verapamil): 96.8%; perc_recovery_b_to_a_inhibitor_mean ([5]; with inhibitor Cyclosporin A): 57.4%; perc_recovery_b_to_a_inhibitor_mean ([5]; with inhibitor Verapamil): 85.3%; CC50 (in vitro [7]; ASAP-0008327-001=ASAP-0012315-001): > 50 µM
